According to ChEMBL document CHEMBL1134703, “Simplified catechin-gallate inhibitors of HIV-1 reverse transcriptase” (Bioorg Med Chem Lett, 2001):

Target: Human immunodeficiency virus type 1 reverse transcriptase (Human immunodeficiency virus 1, UniProt Q72547)
Assay: Inhibition of polymerization in wild type HIV-1 RT with poly rC/dG12-18 template primer and [3H]dGTP

| Compound | IC50 [µM] |
| --- | --- |
| O=C(OC1COc2cc(O)cc(O)c2C1)c1ccc(O)c(O)c1O (stereo not drawn) | 3.83 |
| O=C(OC1COc2cc(O)cc(O)c2C1)c1ccc(O)cc1O (stereo not drawn) | 96.3 |
| O=C(OCCC1COc2cc(O)c(O)cc2C1)c1ccc(O)c(O)c1O (stereo not drawn) | 10.7 |
| O=C(OC1COc2cc(O)cc(O)c2C1)c1cccc(O)c1 (stereo not drawn) | > 100 |
| O=C(OC1COc2cc(O)cc(O)c2C1)c1ccccc1 (stereo not drawn) | > 100 |
| O=C(OC1COc2cccc(O)c2C1)c1ccc(O)c(O)c1O (stereo not drawn) | 45.5 |
| O=C(OC1COc2ccccc2C1)c1ccc(O)c(O)c1O (stereo not drawn) | > 100 |
| O=C(OC1COc2cc(O)cc(O)c2C1)c1cccc(O)c1O (stereo not drawn) | 37.2 |
| O=C(OC1COc2cc(O)ccc2C1)c1ccc(O)c(O)c1O (stereo not drawn) | 36.3 |
| Oc1cc(O)c2c(c1)O[C@H](c1ccc(O)c(O)c1)[C@H](O)C2 [(-)-EPICATECHIN] | > 100 |
| O=C(O[C@@H]1Cc2c(O)cc(O)cc2O[C@@H]1c1ccc(O)c(O)c1)c1cc(O)c(O)c(O)c1 [EPICATECHIN GALLATE] | 0.76 |
| O=C(O[C@@H]1Cc2c(O)cc(O)cc2O[C@@H]1c1cc(O)c(O)c(O)c1)c1cc(O)c(O)c(O)c1 [EPIGALOCATECHIN GALLATE] | 0.73 |
| O=C(O)c1cc(O)c(O)c(O)c1 [GALLIC ACID] | > 100 |
